Experimental data taken from patent US11376272B2, “Methods of modulating immune activity” (Flagship Pioneering Innovations V, Inc., priority 2019, dated 2022).

Experiments:
NfkB = NfkB reporter activity in THP1-Dual cells (QuantiBlue); format: cell-based, human; details: 24 hours
Protocol: (§1) HeLa cervical cancer cells were grown in either DMEM containing 10% FBS (standard culture conditions), or in PBS (nutrient-deprivation) for 48 hours. Conditioned media from each condition was then transferred to THP1-Dual cells in the presence of 300 ng/ml of 2′3′-cGAMP (purchased from Invivogen, cat no. tlrl-nacga23, and resuspended in water). THP1 cells treated with conditioned media were incubated for an additional 24 hours. THP1 supernatants were then assessed for NfkB or IRF reporter activity.
HeLa cells were acquired from the ATCC (catalog no. CCL 2.2) and were cultured in DMEM containing 10% FBS. THP1-Dual cells, which are human monocytes that report on both the NfkB and IRF pathways, were purchased from Invivogen (cat no. thpd-nfis) and were cultured in RPMI containing 10% FBS and 100 μg/ml normocin. […]
To measure IRF or NfkB pathway activation, 35,000 THP1-Dual cells/well were seeded in a 96-well plate (100 μl/well). […] After a 24 hour incubation period, IRF and NfkB activity were measured. To measure IRF activity, 50 μl of THP1 supernatant was transferred to a 96-well plate, and 50 μl of QuantiLuc reagent was added to each well immediately prior to reading luminescence by a platereader. […] The plate was then incubated at room temperature for 2-3 hours prior to reading the absorbance at 655 nm.

IFN-beta [1] = test: IFN-beta secretion from J774 macrophages (ELISA); format: cell-based, mouse; details: J774 macrophages exposed to HeLa/PBS conditioned media in combination with 2′3′-cGAMP, 24 hours
Protocol: (§2) HeLa cervical cancer cells were grown in PBS (nutrient-deprivation) for 48 hours. THP1 cells were then treated with the HeLa-PBS (nutrient deprived) conditioned media in the presence and absence of 2′3′-cGAMP. THP1 supernatants were then assayed for the secretion of IFN-beta, a cytokine regulated by IRF. The same experiment was additionally performed using the mouse macrophage cell line J774 in place of the THP1 cells.
(§3) To generate conditioned media, 3 million HeLa cells were seeded in a 10 cm dish in DMEM containing 10% FBS. Cells were left overnight to adhere and then plates were washed 3× with PBS prior to replacing media with either fresh DMEM containing 10% FBS, or with PBS. Cells were incubated for 48 hours, and then the conditioned media was removed, spun down and sterile filtered.
The same experiment was additionally performed using J774 cells (ATCC, TIB-67). In brief 500,000 cells/well were seeded in a 24-well plate. After cell adherence, media was refreshed, and HeLa conditioned media was added either in the presence or absence of 2′3′-cGAMP (as described above). After 24 hours J774 supernatant was removed an assayed for IFN-beta secretion as described above.

IFN-beta [2] = test: IFN-beta secretion from THP1 monocytes (ELISA); format: cell-based, human; details: THP1 monocytes exposed to HeLa/PBS conditioned media in combination with 2′3′-cGAMP 300 ng/ml, 24 hours
Protocol: as §2, §3
500,000 THP1-Dual cells/well were seeded in a 24-well plate. 500 μl (1:1 dilution) of each condition was added to the well (PBS; PBS+300 ng/ml cGAMP; HeLa-PBS CM; HeLa-PBS CM+300 ng/ml cGAMP) and incubated for 24 hours. Cell supernatants were then spun down and sterile filtered prior to performing ELISA assay. ELISA assay was performed using the human IFN-beta DuoSet ELISA kit (DY814-05) and following the protocol provided by the manufacturer.

IRF = IRF reporter activity in THP1-Dual cells treated with conditioned media and/or compounds (QuantiLuc); format: cell-based, human
Protocol: as §1
HeLa cells were acquired from the ATCC (catalog no. CCL 2.2) and were cultured in DMEM containing 10% FBS. THP1-Dual cells, which are human monocytes that report on both the NfkB and IRF pathways, were purchased from Invivogen (cat no. thpd-nfis) and were cultured in RPMI containing 10% FBS and 100 μg/ml normocin.
as §3
To measure IRF or NfkB pathway activation, 35,000 THP1-Dual cells/well were seeded in a 96-well plate (100 μl/well). 100 μl of HeLa conditioned media was transferred to each well, plus or minus 2′3′-cGAMP (300 ng/ml final concentration). After a 24 hour incubation period, IRF and NfkB activity were measured. To measure IRF activity, 50 μl of THP1 supernatant was transferred to a 96-well plate, and 50 μl of QuantiLuc reagent was added to each well immediately prior to reading luminescence by a platereader. To measure NfkB activity, 50 μl of THP1 supernatant was transferred to a 96-well plate containing 200 μl of QuantiBlue reagent. The plate was then incubated at room temperature for 2-3 hours prior to reading the absorbance at 655 nm.
THP1-Dual cells (acquired from Invivogen) were seeded at 35,000 cells/well in a 96-well plate (100 μl/well). In a separate treatment plate, a 3-fold dose-response curve of each CDN was prepared, starting at 40 μg/ml, in either plain PBS or in combination with HeLa-PBS conditioned media (conditioned media prepared as previously described). 100 μl of compound treatment was transferred to THP1 cells (1:1 dilution) and cells were incubated for 24 hours. THP1 supernatants were subsequently removed and assayed for IRF activity.
THP1-Dual cells were plated at 35,000 cells/well in 96-well format. To each well, 100 μl of conditioned media was added (in triplicate) in the presence or absence of 2′3′-cGAMP (300 ng/ml). THP1-Dual cells were then incubated for 24 hours with conditioned media prior to assaying IRF induction.
THP1-Dual cells (acquired from Invivogen) were seeded at 35,000 cells/well in a 96-well plate (100 μl/well). In a separate treatment plate, a 3-fold dose-response curve of each purinergic receptor antagonist was prepared, starting at 20 μM, in either 2′3′-cGAMP alone or 2′3′-cGAMP in combination with HeLa-PBS conditioned media (conditioned media prepared as described in examples above). 100 μl from the treatment plate was then transferred to THP1 cells (1:1 dilution), and the cells were incubated for 24 hours. THP1 supernatants were removed and tested for IRF activity.
THP1 cells, acquired from Invivogen, were seeded at 35,000 cells/well in 96-well format, in 100 μl media. In a separate treatment plate, a dose curve of PSB 1114, starting at 20 μM, was prepared in either plain PBS, or in the presence of cGAMP. 100 μl from treatment plate was transferred to THP1 cells (1:1 dilution), and cells were incubated for 24 hours prior to IRF and NfkB read-out.
THP1 cells, acquired from Invivogen, were seeded at 35,000 cells/well in 96-well format, in 100 μl media. In a separate treatment plate, a dose curve of Diquafosol (acquired from MedChemExpress), starting at 100 μM, was prepared in either plain PBS, or in the presence of cGAMP. […]

CT26 colon carcinoma = details: Corrales et al., 2015; cited from earlier work
B16.F10 melanoma = details: Corrales et al., 2015; cited from earlier work
IFN-β = details: PBMCs isolated from multiple donors with different STING genotypes; Corrales et al., 2015; cited from earlier work
4T1 mammary carcinoma = details: Corrales et al., 2015; cited from earlier work
human STING alleles = details: HEK293T cells; Corrales et al., 2015; cited from earlier work
[3] = system: A20 B-cell lymphoma tumor cells; test: Survival in mouse model of A20 B-cell lymphoma; format: in vivo, BALB/c mice; details: combination of 1 μg/kg ADU-S100 and 10 mg/animal diquafosol tetrasodium intratumorally once per day (Group 5), relative to either agent alone (Groups 2, 4)
Protocol: Test BALB/c mice were injected subcutaneously in the right flank with 1×10^6 A20 B-cell lymphoma tumor cells (in a 0.1 mL cell suspension). Sixteen days after tumor cell implantation, on Day 1 of the study, animals were sorted into ten groups (n=10) with individual tumor volumes between 48 and 100 mm^3 and a group mean tumor volume of 81 mm^3. Five groups of mice were dosed according in the following treatment groups.
Group 1 received Vehicle (PBS) intratumorally once per day. • Group 2 received 1 μg/kg of the STING agonist (ADU-S100) intratumorally once per day. • Group 3 received 50 μg/kg of the STING agonist (ADU-S100) intratumorally once per day. • Group 4 received 10 mg/animal of the purinergic receptor agonist (diquafosol testrasodium) intratumorally once per day. • Group 5 received 1 μg/kg ADU-S100 intratumorally combined with 10 mg/animal of diquafosol testrasodium intratumorally once per day.
ADU-S100 and Diquafosol tetrasodum were dosed intratumorally (itu) in a total volume of 50 μL of therapeutic agents; combination therapies were administered as single injections containing 2×25 μL of 2× dosing solutions.
Tumors were measured using calipers twice per week.

[4] = combination of Diquafosol (dose curve starting at 100 μM) and cGAMP, THP1 cells, 24 hours
[5] = combination of PSB 1114 (dose curve starting at 20 μM) and 2′3′-cGAMP, THP1 cells, 24 hours
[6] = combination of Diquafosol (dose curve starting at 100 μM) and ADU-S100 (2 μM), THP1 cells, 24 hours

For Nc1nc2c(ncn2[C@@H]2O[C@@H]3COP(=O)(O)O[C@H]4[C@@H](O)[C@H](n5cnc6c(N)ncnc65)O[C@@H]4COP(=O)(O)O[C@@H]2[C@@H]3O)c(=O)[nH]1 [2′3′-cGAMP], the NFKB signaling (NfkB; combination of conditioned media from HeLa cells in DMEM+10% FBS (standard culture) and 2′3′-cGAMP 300 ng/ml) was “only slightly induced”, the NFKB signaling (NfkB; combination of nutrient-starved (PBS, 48 hours) HeLa conditioned media and 2′3′-cGAMP 300 ng/ml) was “increased” and the IFN-beta secretion (IFN-beta [1]) was “increased”. The IFN-beta secretion (IFN-beta [2]) was “increased”, the IRF signaling (IRF; [4]) was “induced IRF signaling” and the IRF signaling (IRF; [5]) was “induced IRF signaling”. For the same compound, the IRF signaling (IRF; combination of conditioned media from HeLa cells in DMEM+10% FBS (standard culture) and 2′3′-cGAMP 300 ng/ml, THP1-Dual cells, 24 hours) was “only slightly induced”, the IRF signaling (IRF; combination of nutrient-starved (PBS, 48 hours) HeLa conditioned media and 2′3′-cGAMP 300 ng/ml, THP1-Dual cells, 24 hours) was “increased” and the IRF signaling (IRF; combinations of cGAMP with purinergic receptor agonist nucleotide triphosphates, human monocytes, data not shown) was “induced IRF signaling”. For the same compound, the IRF activation (IRF; conditioned media (PBS, 48 hours) of A549, A427, J774, AMJ2C11, PANC1, MLE12, RAW264, Calu-1, MCF7 cells in combination with 2′3′-cGAMP 300 ng/ml, THP1-Dual cells, 24 hours) was “induced IRF activation”.
For Nc1ncnc2c1ncn2[C@@H]1O[C@@H]2COP(=O)([S-])O[C@@H]3[C@H](O)[C@@H](COP([O-])(=S)O[C@H]2[C@H]1O)O[C@H]3n1cnc2c(N)ncnc21.[Na+].[Na+] (some centres unmarked) [ADU-S100], the “antitumor immune response and tumor regression” value (CT26 colon carcinoma) is given as “potent antitumor immune response and significant tumor regression”, the “antitumor immune response and tumor regression” value (B16.F10 melanoma) is given as “potent antitumor immune response and significant tumor regression” and the “expression of IFN-β” value (IFN-β) is given as “induced dose-dependent expression of IFN-β”. The “antitumor immune response and tumor regression” value (4T1 mammary carcinoma) was “potent antitumor immune response and significant tumor regression”, the STING activation (human STING alleles) was “broadly activate all known human STING alleles” and the survival [3] was “much greater effect on increasing survival”. For the same compound, the IRF signaling (IRF; combination of ADU-S100 (dose curve starting at 20 μM) and nutrient starved (PBS) HeLa conditioned media, THP1 cells, 24 hours) was “strongly increased IRF signaling” and the IRF signaling (IRF; [6]) was “synergizes”.
For Cc1ccc2c(c1)C=Cc1cc(C)ccc1C2c1cn(Cc2ccc(C(=O)Nc3nn[nH]n3)o2)c(=O)[nH]c1=S [AR-C 118925], the “synergistic induction of IRF activity by cGAMP in combination with HeLa-PBS conditioned media” value (IRF; purinergic receptor antagonist 3-fold dose-response starting at 20 μM, THP1-Dual cells, 24 hours) was “inhibited”.
With O=c1ccn([C@@H]2O[C@H](COP(=O)(O)OP(=O)(O)OP(=O)(O)OP(=O)(O)OC[C@H]3O[C@@H](n4ccc(=O)[nH]c4=O)[C@H](O)[C@@H]3O)[C@@H](O)[C@H]2O)c(=O)[nH]1 [Diquafosol] the survival [3] was “much greater effect on increasing survival”, the IRF signaling (IRF; [6]) was “synergizes” and the IRF signaling (IRF; [4]) was “induced IRF signaling”.
For O=c1[nH]c(=S)ccn1[C@@H]1O[C@H](COP(=O)(O)OP(=O)(O)C(F)(F)P(=O)(O)O)[C@@H](O)[C@H]1O [PSB 1114], the IRF signaling (IRF; [5]) was “induced IRF signaling”.
